The values that follow come from patent publication US20250145589A1, “PYRIDINE DERIVATIVE AND USE THEREOF” (SICHUAN HUIYU PHARMACEUTICAL CO., LTD., priority 2021, published 2025).

Where two headings read alike, the source gives them in different places.

The term IC50 denotes the concentration at which inhibition is half-maximal.

In experiment [1] the target is PI3Kα (Homo sapiens (Human), UniProt P42336). As to the kind of experiment: Inhibition of PI3Kα efficacy assay (ADP-Glo kinase assay). It counts as biochemical. The settings on record: read-out: PI3Kα inhibitory activity (IC50). In short, it runs like this: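 Eight five-fold dilutions of compound (2 mM DMSO stock) tested; kinase reaction with PI and ATP ran 60 min at RT, followed by ADP-Glo and detection reagent steps of 40 min each. Four-parameter logistic fitting gave IC50 values.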
Chain of PI3Kα (P42336 whole entry): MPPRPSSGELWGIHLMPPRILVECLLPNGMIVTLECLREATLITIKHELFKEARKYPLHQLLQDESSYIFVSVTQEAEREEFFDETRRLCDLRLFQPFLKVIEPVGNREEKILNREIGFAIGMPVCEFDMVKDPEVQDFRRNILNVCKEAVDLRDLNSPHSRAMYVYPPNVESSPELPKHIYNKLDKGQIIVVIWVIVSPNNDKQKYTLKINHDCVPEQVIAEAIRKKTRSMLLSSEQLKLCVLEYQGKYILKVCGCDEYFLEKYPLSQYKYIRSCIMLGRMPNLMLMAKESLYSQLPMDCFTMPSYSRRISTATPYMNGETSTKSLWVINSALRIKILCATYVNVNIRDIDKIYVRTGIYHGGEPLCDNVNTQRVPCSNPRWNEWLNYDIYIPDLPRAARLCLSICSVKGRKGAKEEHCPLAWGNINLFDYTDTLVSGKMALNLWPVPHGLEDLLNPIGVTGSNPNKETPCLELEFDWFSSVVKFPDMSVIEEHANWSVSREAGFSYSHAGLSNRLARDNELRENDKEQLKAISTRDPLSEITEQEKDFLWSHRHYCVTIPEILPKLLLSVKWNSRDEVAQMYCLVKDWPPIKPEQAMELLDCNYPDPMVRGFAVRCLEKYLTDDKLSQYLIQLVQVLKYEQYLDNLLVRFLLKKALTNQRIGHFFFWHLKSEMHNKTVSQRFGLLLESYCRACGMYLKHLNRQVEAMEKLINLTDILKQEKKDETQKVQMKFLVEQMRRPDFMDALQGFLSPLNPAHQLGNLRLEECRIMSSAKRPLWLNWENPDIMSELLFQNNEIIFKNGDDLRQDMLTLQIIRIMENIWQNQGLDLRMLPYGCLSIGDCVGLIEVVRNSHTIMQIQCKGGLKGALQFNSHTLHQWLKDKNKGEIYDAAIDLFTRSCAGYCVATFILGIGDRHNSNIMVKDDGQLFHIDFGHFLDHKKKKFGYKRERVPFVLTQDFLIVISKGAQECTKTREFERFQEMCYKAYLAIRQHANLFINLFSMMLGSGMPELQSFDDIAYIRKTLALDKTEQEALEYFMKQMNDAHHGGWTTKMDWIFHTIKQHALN
Chain of PI3Kα (P27986 whole entry partner): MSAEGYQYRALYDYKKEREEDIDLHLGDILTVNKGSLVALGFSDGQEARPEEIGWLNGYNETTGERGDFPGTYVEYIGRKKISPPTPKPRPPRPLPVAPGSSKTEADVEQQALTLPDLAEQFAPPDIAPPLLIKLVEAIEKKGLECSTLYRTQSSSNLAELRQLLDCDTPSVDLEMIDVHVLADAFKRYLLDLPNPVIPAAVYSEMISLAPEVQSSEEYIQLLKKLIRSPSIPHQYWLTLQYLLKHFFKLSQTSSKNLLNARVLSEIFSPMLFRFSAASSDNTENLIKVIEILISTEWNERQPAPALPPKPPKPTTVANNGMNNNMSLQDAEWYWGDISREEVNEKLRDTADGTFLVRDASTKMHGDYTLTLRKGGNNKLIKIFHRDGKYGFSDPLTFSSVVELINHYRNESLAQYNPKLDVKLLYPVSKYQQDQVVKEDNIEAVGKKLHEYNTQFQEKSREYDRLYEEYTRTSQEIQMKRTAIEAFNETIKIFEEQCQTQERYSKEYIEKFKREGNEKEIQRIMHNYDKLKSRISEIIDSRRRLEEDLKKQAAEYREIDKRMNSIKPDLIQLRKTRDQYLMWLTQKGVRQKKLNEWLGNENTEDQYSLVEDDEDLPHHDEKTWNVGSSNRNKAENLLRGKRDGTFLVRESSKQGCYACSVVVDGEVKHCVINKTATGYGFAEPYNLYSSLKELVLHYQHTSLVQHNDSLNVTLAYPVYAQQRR
Background: ADP-Glo turns the ADP formed in a reaction into a luminescent signal.

Experiment [2] addresses PI3Kδ (Homo sapiens (Human), UniProt O00329). Description: Inhibition of PI3Kδ efficacy assay (ADP-Glo kinase assay). It counts as biochemical. The following applies: read-out: PI3Kδ inhibitory activity (IC50). How it is done: Test Example 2: Inhibition of PI3Kδ Efficacy assay The ADP-Glo™ kinase assay was used to assess the inhibition of PI3Kδ with our compounds. The utilized proteins and assay reagents were obtained from the ADP-Glo™ Kinase Assay Kit (Promega). Initially, a 2 mM stock solution of the test compound (dissolved in DMSO) was serially diluted in five-fold concentrations using DMSO to obtain eight working solutions 1 (200×) Subsequently, each of the eight working solutions 1 was further diluted in a 20-fold gradient by adding 5 μL into 95 μL of ddH2O, resulting in eight working solutions 2 (10×). […] Subsequently, 2 μL of 2.5×PI and ATP solution mixture were added to each well, mixed, and incubated at RT for 60 minutes. Then, 5 μL of ADP-Glo (containing 10 mM MgCl2) reagent was added to each well, mixed, and incubated at RT for 40 minutes. Finally, 10 μL of the Kinase Detection Reagent was added to each well, mixed, and incubated at RT for 40 minutes. Luminescence values were recorded using a multi-mode microplate reader with luminescence channel settings, and the inhibitory rate was calculated using the following formula: [formula] Data were analyzed using GraphPad Prism with log(inhibitor) vs. response—Variable Slope(four parameters) fitting calculations for IC50 values.

For experiment [3], the system named is NCI-H358 cells (KRAS G12C mutant). As to the kind of experiment: NCI-H358 cell proliferation inhibition (CellTiter-Glo). It counts as cell-based. The following applies: Homo sapiens, NCI-H358, 72 h; H358 cells (G12C mutation), 3 days, Table 6; read-out: NCI-H358 (IC50). Background: Cellular ATP, detected with luciferase, serves as a proxy for viable cell number.

Chain of PI3Kδ (O00329 whole entry): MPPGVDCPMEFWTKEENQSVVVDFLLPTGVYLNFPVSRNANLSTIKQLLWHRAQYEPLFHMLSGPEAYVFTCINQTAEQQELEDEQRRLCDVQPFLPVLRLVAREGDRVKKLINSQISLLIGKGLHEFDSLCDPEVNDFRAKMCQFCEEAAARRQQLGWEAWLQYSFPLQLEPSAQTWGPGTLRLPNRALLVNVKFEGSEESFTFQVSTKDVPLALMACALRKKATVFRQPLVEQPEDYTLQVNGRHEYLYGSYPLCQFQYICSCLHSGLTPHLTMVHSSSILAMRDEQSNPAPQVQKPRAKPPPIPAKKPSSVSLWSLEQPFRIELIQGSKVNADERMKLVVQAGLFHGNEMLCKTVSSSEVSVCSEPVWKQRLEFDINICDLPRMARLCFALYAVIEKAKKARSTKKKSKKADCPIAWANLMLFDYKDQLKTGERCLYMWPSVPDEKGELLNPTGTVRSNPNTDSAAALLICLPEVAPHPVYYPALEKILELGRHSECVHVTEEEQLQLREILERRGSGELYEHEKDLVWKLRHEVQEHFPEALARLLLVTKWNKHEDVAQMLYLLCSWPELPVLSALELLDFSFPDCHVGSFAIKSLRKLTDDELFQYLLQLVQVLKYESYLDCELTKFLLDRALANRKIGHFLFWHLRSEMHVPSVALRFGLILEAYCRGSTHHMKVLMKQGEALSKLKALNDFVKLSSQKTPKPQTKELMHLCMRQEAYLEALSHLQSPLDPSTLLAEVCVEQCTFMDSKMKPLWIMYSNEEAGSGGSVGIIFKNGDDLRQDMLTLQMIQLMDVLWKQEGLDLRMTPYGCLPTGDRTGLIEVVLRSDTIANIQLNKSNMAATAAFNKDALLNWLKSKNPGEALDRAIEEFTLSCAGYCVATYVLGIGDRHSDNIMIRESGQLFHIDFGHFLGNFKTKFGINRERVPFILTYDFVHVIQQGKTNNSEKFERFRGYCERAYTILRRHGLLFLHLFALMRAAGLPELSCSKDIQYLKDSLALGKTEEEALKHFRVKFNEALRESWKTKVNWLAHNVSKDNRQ
Chain of PI3Kδ (P27986 whole entry partner): as the sequence (P27986 whole entry partner) above

On to `C=C(F)C(=O)N1CC2(CCN(c3ncnc4ccc(-c5cnc(OC)c(NS(=O)(=O)c6ccc(F)cc6F)c5)cc34)CC2)C1` [Example 19, 2,4-difluoro-N-(5-(4-(2-(2-fluoroacryloyl)-2,7-diazaspiro[3.5]nonan-7-yl)quinazolin-6-yl)-2-methoxypyridin-3-yl)benzenesulfonamide], for which the values for the IC50 in experiment [1] (Table 1), in experiment [2] (Table 1) and in experiment [3] were 4.7 nM, 57.8 nM and 22 nM, respectively.

As to `C=CC(=O)N1CCN(c2ncnc3ccc(-c4cnc(OC)c(NS(=O)(=O)c5c(F)cccc5F)c4)cc23)CC1` [Example 21, N-(5-(4-(4-acryloylpiperazin-1-yl)quinazolin-6-yl)-2-methoxypyridin-3-yl)-2,6-difluorobenzenesulfonamide], the values for the IC50 in experiment [1] (Table 1), in experiment [2] (Table 1) and in experiment [3] were 5.8 nM, 58.2 nM and 27 nM, respectively.

As to `C=CC(=O)N1CCN(c2ncnc3ccc(-c4cnc(OC)c(NS(=O)(=O)c5ccccc5)c4)cc23)CC1` [Example 24, N-(5 (4-(4-acryloylpiperazin-1-yl)quinazolin-6-yl)-2-methoxypyridin-3-yl)benzenesulfonamide], the IC50 in experiment [1] (Table 1) was found to be 2.9 nM; in experiment [2] (Table 1), 6.3 nM; in experiment [3], 123 nM.

Consider `C=CC(=O)N1CCN(c2ncnc3ccc(-c4cnc(OC)c(NS(=O)(=O)C5CCCCC5)c4)cc23)CC1` [Example 25, N-(5-(4-(4-acryloylpiperazin-1-yl)quinazolin-6-yl)-2-methoxypyridin-3-yl)cyclohexanesulfonamide], for which the results for the IC50 in experiment [1] (Table 1), in experiment [2] (Table 1) and in experiment [3] were 26.9 nM, 127 nM and 288 nM, respectively.

In the case of `COc1ncc(-c2ccc3ncnc(N4CCN(C(=O)/C=C/C(C)=O)CC4)c3c2)cc1NS(=O)(=O)C1CCCCC1` [Example 26, (E)-N-(2-methoxy-5-(4-(4-(4-oxopent-2-enoyl)piperazin-1-yl)quinazolin-6-yl)pyridin-3-yl)cyclohexanesulfonamide], the values for the IC50 in experiment [1] (Table 1), in experiment [2] (Table 1) and in experiment [3] were 44.6 nM, 265 nM and 142 nM, respectively.

`C=CC(=O)N1CCN(c2ncnc3ccc(-c4cnc(Cl)c(NS(=O)(=O)c5ccc(F)cc5F)c4)cc23)CC1` [Example 33, N-(5-(4-(4-acryloylpiperazin-1-yl)quinazolin-6-yl)-2-chloropyridin-3-yl)-2,4-difluorobenzenesulfonamide]: the IC50 in experiment [1] (Table 1) was 12.6 nM; in experiment [2] (Table 1), 68.7 nM; in experiment [3], 333 nM.

For the compound `C=CC(=O)N1CCN(c2ncnc3ccc(-c4cnc(Cl)c(NS(=O)(=O)c5ccc(Cl)s5)c4)cc23)CC1` [Example 35, N-(5-(4-(4-acryloylpiperazin-1-yl)quinazolin-6-yl)-2-chloropyridin-3-yl)-5-chlorothiophene-2-sulfonamide], the 50% inhibitory concentration (IC50) in experiment [1] (Table 1) was 5.8 nM; in experiment [2] (Table 1), 117 nM; in experiment [3], 900 nM.

For `CC(=O)/C=C/C(=O)N1CCN(c2ncnc3ccc(-c4cnc(Cl)c(NS(=O)(=O)c5ccc(Cl)s5)c4)cc23)CC1` [Example 36, (E)-5-chloro-N-(2-chloro-5-(4-(4-(4-oxopent-2-enoyl)piperazin-1-yl)quinazolin-6-yl)pyridin-3-yl)thiophene-2-sulfonamide], the results for the IC50 in experiment [1] (Table 1), in experiment [2] (Table 1) and in experiment [3] were 21.5 nM, 140 nM and 278 nM, respectively.

For `C=CC(=O)N1CCN(c2ncnc3c2CN(c2cnc(OC)c(NS(=O)(=O)c4ccc(F)cc4F)c2)CC3)CC1` [Example 41, N-(5-(4-(4-acryloylpiperazin-1-yl)-7,8-dihydropyrido[4,3-d]pyrimidin-6 (5H)-yl)-2-methoxypyridin-3-yl)-2,4-difluorobenzenesulfonamide], the IC50 in experiment [1] (Table 1) came out at 7.6 nM; in experiment [2] (Table 1), 10.1 nM; in experiment [3], 4290 nM.

`C=C(F)C(=O)N1CCN(c2ncnc3ccc(-c4cnc(OC)c(NS(=O)(=O)c5c(F)cccc5F)c4)cc23)CC1` [Example 43, 2,6-difluoro-N-(5-(4-(4-(2-fluoroacryloyl)piperazin-1-yl)quinazolin-6-yl)-2-methoxypyridin-3-yl) benzenesulfonamide]: the figures for the concentration for half-maximal inhibition (IC50) in experiment [1] (Table 2), in experiment [2] (Table 2) and in experiment [3] were 2.5 nM, 12.9 nM and 27.9 nM, respectively.

For the compound `COc1ncc(-c2ccc3ncnc(N4CCN(C(=O)/C=C/C(F)(F)F)CC4)c3c2)cc1NS(=O)(=O)c1c(F)cccc1F` [Example 44, (E)-2,6-difluoro-N-(2-methoxy-5-(4-(4-(4,4,4-trifluorobut-2-enoyl)piperazin-1-yl)quinazolin-6-yl)pyridin-3-yl) benzenesulfonamide], the half-maximal inhibitory concentration (IC50) in experiment [1] (Table 2) was 4.3 nM; in experiment [2] (Table 2), 17.5 nM; in experiment [3], 41.6 nM.

As for `C=C(F)C(=O)N1CCN(c2ncnc3ccc(-c4cnc(OC)c(NS(=O)(=O)c5c(F)cccc5F)c4)cc23)[C@@H](C)C1` [Example 45, (S)-2,6-difluoro-N-(5-(4-(4-(2-fluoroacryloyl)-2-methylpiperazin-1-yl)quinazolin-6-yl)-2-methoxypyridin-3-yl) benzenesulfonamide], the IC50 in experiment [1] (Table 2) stood at 2.8 nM; in experiment [2] (Table 2) it was 38.6 nM; in experiment [3] it was 164 nM.

Regarding `C=C(F)C(=O)N1CC2(CCN(c3ncnc4ccc(-c5cnc(OC)c(NS(=O)(=O)c6c(F)cccc6F)c5)cc34)CC2)C1` [Example 47, 2,6-difluoro-N-(5-(4-(2-(2-fluoroacryloyl)-2,7-diazaspiro[3.5]nonan-7-yl)quinazolin-6-yl)-2-methoxypyridin-3-yl) benzenesulfonamide], the half-inhibitory concentration (IC50) in experiment [1] (Table 2) came to 2.2 nM; in experiment [2] (Table 2) it was 25.2 nM; in experiment [3], 34.3 nM.

Regarding `C=C(F)C(=O)N1CC2(CCN(c3ncnc4ccc(-c5cnc(OC)c(NS(=O)(=O)c6c(F)cccc6F)c5)cc34)C2)C1` [Example 48, 2,6-difluoro-N-(5-(4-(2-(2-fluoroacryloyl)-2,6-diazaspiro[3.4]octan-6-yl)quinazolin-6-yl)-2-methoxypyridin-3-yl) benzenesulfonamide], the IC50 in experiment [1] (Table 2) was 0.63 nM; in experiment [2] (Table 2), 13.2 nM; in experiment [3], 52.6 nM.

As to `C=CC(=O)N1CC2(CCN(c3ncnc4ccc(-c5cnc(OC)c(NS(=O)(=O)c6c(F)cccc6F)c5)cc34)CC2)C1` [Example 50, N-(5-(4-(2-acryloyl-2,7-diazaspiro[3.5]nonan-7-yl)quinazolin-6-yl)-2-methoxypyridin-3-yl)-2,6-difluorobenzene-sulfonamide], the results for the half-inhibitory concentration (IC50) in experiment [1] (Table 2), in experiment [2] (Table 2) and in experiment [3] were 0.61 nM, 11.4 nM and 31.1 nM, respectively.

Take `C=CC(=O)N1CC(N2CCN(c3ncnc4ccc(-c5cnc(OC)c(NS(=O)(=O)c6ccc(F)cc6F)c5)cc34)CC2)C1` [Example 55, N-(5-(4-(4-(1-acryloylazetidin-3-yl)piperazin-1-yl)quinazolin-6-yl)-2-methoxypyridin-3-yl)-2,4-difluorobenzene-sulfonamide]: the IC50 worked out at 1.2 nM in experiment [1] (Table 2), 43.5 nM in experiment [2] (Table 2) and 39.5 nM in experiment [3].

On to `C=C(F)C(=O)N1CC(N2CCN(c3ncnc4ccc(-c5cnc(OC)c(NS(=O)(=O)c6ccc(F)cc6F)c5)cc34)CC2)C1` [Example 57, 2,4-difluoro-N-(5-(4-(4-(1-(2-fluoroacryloyl)azetidin-3-yl)piperazin-1-yl)quinazolin-6-yl)-2-methoxypyridin-3-yl)benzenesulfon-amide], for which the IC50 in experiment [1] (Table 2) amounted to 1.9 nM; in experiment [2] (Table 2) it was 33.4 nM; in experiment [3], 29.9 nM.

For `C=C(F)C(=O)N1CC2(CCN(c3ncnc4ccc(-c5cnc(OC)c(NS(=O)(=O)c6ccc(F)cc6F)c5)cc34)C2)C1` [Example 60, 2,4-difluoro-N-(5-(4-(2-(2-fluoroacryloyl)-2,6-diazaspiro[3.4]octan-6-yl)quinazolin-6-yl)-2-methoxy-pyridin-3-yl) benzene-sulfonamide], the half-inhibitory concentration (IC50) is 3.9 nM in experiment [1] (Table 2), 13.5 nM in experiment [2] (Table 2) and 48.2 nM in experiment [3].

Take `COc1ncc(-c2ccc3ncnc(N4CCN(C(=O)/C=C/c5ncco5)CC4)c3c2)cc1NS(=O)(=O)c1ccc(F)cc1F` [Example 62, (E)-2,4-difluoro-N-(2-methoxy-5-(4-(4-(3-(oxazol-2-yl)acryloyl)piperazin-1-yl)quinazolin-6-yl)pyridin-3-yl) benzene-sulfonamide]: the IC50 is 11.8 nM in experiment [1] (Table 2), 12.5 nM in experiment [2] (Table 2) and 15.1 nM in experiment [3].

As for `COC/C=C/C(=O)N1CCN(c2ncnc3ccc(-c4cnc(OC)c(NS(=O)(=O)c5ccc(F)cc5F)c4)cc23)CC1` [Example 64, (E)-2,4-difluoro-N-(2-methoxy-5-(4-(4-(4-methoxybut-2-enoyl)piperazin-1-yl)quinazolin-6-yl)pyridin-3-yl) benzene-sulfonamide], the IC50 in experiment [1] (Table 2) is 16.7 nM; in experiment [2] (Table 2) it was 14.6 nM; in experiment [3] it was 12.6 nM.
